Source: patent US5300491A, “Treatment of protozoal infection” (priority 1992, dated 1994)
Several values for one entry are separate records, joined by “and”; a condition that tells them apart may be missing. Equal entries are not always repeated. Where two headings read alike, the source gives them in different places. Bridge positions count the residues as written; N and C are the ends. Square brackets hold non-standard residues; d marks the D form. Peptide text beside a SMILES is read from it. * marks the point of attachment. Ileψ(thiazoline)Cys = CC[C@H](C)[C@H](N)C1=N[C@H](C(=O)*)CS1; dOrn = NCCC[C@@H](N)C(=O)O

Legend:
Micrococcus uteus = details: as obtained from Apothekernes Laboratorium A.S; cited from earlier work
Tritrichomonas gallinae = Tritrichomonas gallinae assay (MLC); type: cell-based; details: isolate GH85
Protocol: A single T. gallinae isolate was collected and treated with bacitracin or zinc bacitracin in accordance with the procedure of Example IV. Duplicate plates of the isolate were prepared. one plate was exposed to an aerobic environment. The second plate was exposed to an anaerobic environment.

Trichomonas vaginalis [1] = assay: Trichomonas vaginalis assay of other divalent metal salts of bacitracin (MIC); type: cell-based
Protocol: (§1) All isolates were treated with either bacitracin or zinc bacitracin.
(§2) Prior to being diluted with the medium, the bacitracins were initially solubilized in water to 250 mg/ml. The zinc salt was solubilized in acidified water (60 μl HC1/ml). Duplicate plates of each isolate were prepared. one set of plates was exposed to an aerobic environment; and, the second set was exposed to an anaerobic environment. An Oxoid HP 11 anaerobic gas chamber and BR 38 gas generating kit were used to produce the anaerobic environment.
The procedure of Example IV was repeated, substituting bacitracin salts of the following metals for zinc bacitracin: nickel, cadmium, cobalt, manganese, copper and iron. The MLCs of the bacitracin salts were out of range. However, the MICs indicate that, with the exception of ferrous bacitracin, complexation with a divalent metal salt enhanced the activity of bacitracin.

Trichomonas vaginalis [2] = assay: Trichomonas vaginalis assay (MLC, aerobic and anaerobic); type: cell-based; details: for MLCs: span over metronidazole-sensitive isolates, converted from IU/ml
Protocol: as §1, §2

Giardia lamblia = type: cell-based
Protocol: A Portland isolate of G. lamblia was treated with bacitracin and zinc bacitracin according to the procedure of Example IV. An Oxoid HP 11 anaerobic gas chamber and BR 38 gas generating kit were used to produce an anaerobic environment. […] The parasites were incubated in the presence of the treating reagent for 2 4 hours. The viability of the parasites was based on morphology and motility.

[3] = span depending upon culture conditions
[4] = span depending upon culture conditions, converted from IU/ml
[5] = isolate 1031, metronidazole-sensitive, aerobic
[6] = isolate 1031, metronidazole-sensitive, anaerobic
[7] = isolate 1043, metronidazole-sensitive, aerobic
[8] = isolate 1043, metronidazole-sensitive, anaerobic
[9] = isolate 1044, metronidazole-sensitive, aerobic
[10] = isolate 1044, metronidazole-sensitive, anaerobic
[11] = isolate 1064, metronidazole-sensitive, aerobic
[12] = isolate 1064, metronidazole-sensitive, anaerobic
[13] = isolate 1065, metronidazole-sensitive, aerobic
[14] = isolate 1065, metronidazole-sensitive, anaerobic
[15] = isolate 1165, metronidazole-sensitive, aerobic
[16] = isolate 1165, metronidazole-sensitive, anaerobic
[17] = isolate 1910, metronidazole-sensitive, aerobic
[18] = isolate 1910, metronidazole-sensitive, anaerobic
[19] = isolate 6950, metronidazole-sensitive, aerobic
[20] = isolate 6950, metronidazole-sensitive, anaerobic
[21] = isolate 89532.2, metronidazole-insensitive, aerobic
[22] = isolate 89532.2, metronidazole-insensitive, anaerobic
[23] = isolate 90576, metronidazole-insensitive, aerobic
[24] = isolate 90576, metronidazole-insensitive, anaerobic
[25] = isolate CDC85, metronidazole-insensitive, aerobic
[26] = isolate CDC85, metronidazole-insensitive, anaerobic
[27] = isolate IR78, metronidazole-insensitive, aerobic
[28] = isolate IR78, metronidazole-insensitive, anaerobic
[29] = isolate PHLS289, metronidazole-insensitive, aerobic
[30] = isolate PHLS289, metronidazole-insensitive, anaerobic
[31] = isolate STH-1, metronidazole-insensitive, aerobic
[32] = isolate STH-1, metronidazole-insensitive, anaerobic
[33] = isolate UCH-1, metronidazole-sensitive, aerobic
[34] = isolate UCH-1, metronidazole-sensitive, anaerobic
[35] = isolate UCH-2, metronidazole-sensitive, aerobic
[36] = isolate UCH-2, metronidazole-sensitive, anaerobic
[37] = isolate UCH-M1, metronidazole-sensitive, aerobic
[38] = isolate UCH-M1, metronidazole-sensitive, anaerobic
[39] = isolate UOB-1, metronidazole-sensitive, aerobic
[40] = isolate UOB-1, metronidazole-sensitive, anaerobic
[41] = Portland isolate, anaerobic, 24 hours, two lines of values

Zinc bacitracin
250 IU/ml: MLC (Tritrichomonas gallinae; aerobic) | MLC (Trichomonas vaginalis [2]; [5]) | MLC (Trichomonas vaginalis [2]; [9]) | MLC (Trichomonas vaginalis [2]; [11]) | MLC (Trichomonas vaginalis [2]; [16]) | MLC (Trichomonas vaginalis [2]; [23]) | MLC (Trichomonas vaginalis [2]; [30]) | MLC (Trichomonas vaginalis [2]; [31]) | MLC (Trichomonas vaginalis [2]; [37]) | MLC (Trichomonas vaginalis [2]; [38])
300 IU/ml: MLC (Tritrichomonas gallinae; anaerobic) | MLC (Trichomonas vaginalis [2]; [10]) | MLC (Trichomonas vaginalis [2]; [12]) | MLC (Trichomonas vaginalis [2]; [13]) | MLC (Trichomonas vaginalis [2]; [27]) | MLC (Trichomonas vaginalis [2]; [28])
2500 to 5000 µg/mL: MIC (Trichomonas vaginalis [1]; T. vaginalis isolate 1910)
3.91 to 4.87 mg/mL: MLC (Tritrichomonas gallinae; [4])
200 IU/ml: MLC (Trichomonas vaginalis [2]; [29])
350 IU/ml: MLC (Trichomonas vaginalis [2]; [6]) | MLC (Trichomonas vaginalis [2]; [7]) | MLC (Trichomonas vaginalis [2]; [8]) | MLC (Trichomonas vaginalis [2]; [15]) | MLC (Trichomonas vaginalis [2]; [18]) | MLC (Trichomonas vaginalis [2]; [19]) | MLC (Trichomonas vaginalis [2]; [21]) | MLC (Trichomonas vaginalis [2]; [22]) | MLC (Trichomonas vaginalis [2]; [24]) | MLC (Trichomonas vaginalis [2]; [25]) | MLC (Trichomonas vaginalis [2]; [26]) | MLC (Trichomonas vaginalis [2]; [32]) | MLC (Trichomonas vaginalis [2]; [35])
250-300 IU/ml: MLC (Tritrichomonas gallinae; [3])
2.3 to 6.3 mg/mL: MICs (Giardia lamblia; Portland isolate, converted from IU/ml)
> 400 IU/ml and 300 IU/ml: MLC (second of the two columns per drug) (Giardia lamblia; [41])
65 I.U./mg: Potency of the material used (Micrococcus uteus)
400 IU/ml: MLC (Trichomonas vaginalis [2]; [14]) | MLC (Trichomonas vaginalis [2]; [17]) | MLC (Trichomonas vaginalis [2]; [20]) | MLC (Trichomonas vaginalis [2]; [33]) | MLC (Trichomonas vaginalis [2]; [34]) | MLC (Trichomonas vaginalis [2]; [36]) | MLC (Trichomonas vaginalis [2]; [39]) | MLC (Trichomonas vaginalis [2]; [40])
2500 µg/mL: MIC (Trichomonas vaginalis [1]; T. vaginalis isolate UCH1)
3.13 to 5.47 mg/mL: MLCs (Trichomonas vaginalis [2])

CC[C@H](C)[C@H](N)C1=N[C@H](C(=O)N[C@@H](CC(C)C)C(=O)N[C@H](CCC(=O)O)C(=O)N[C@H](C(=O)N[C@H]2CCCCNC(=O)[C@H](CC(N)=O)NC(=O)[C@@H](CC(=O)O)NC(=O)[C@H](Cc3cnc[nH]3)NC(=O)[C@@H](Cc3ccccc3)NC(=O)[C@H]([C@@H](C)CC)NC(=O)[C@@H](CCCN)NC2=O)[C@@H](C)CC)CS1 [Bacitracin, reference compound] ({Ileψ(thiazoline)Cys}-L[dE]IK[dOrn]I[dF]H[dD]N; lactam 4-C)
10000 µg/mL: MIC (Trichomonas vaginalis [1]; T. vaginalis isolate 1910) | MIC (Trichomonas vaginalis [1]; T. vaginalis isolate UCH1)
> 3500 IU/ml: MLC (second of the two columns per drug) (Giardia lamblia; [41])
21.44-35.71 mg/mi: MLCs (Trichomonas vaginalis [2])
1,500-2,000 IU/ml: MLC (Tritrichomonas gallinae; [3])
70 I.U./mg: Potency of the material used (Micrococcus uteus)
2500 IU/ml: MLC (Trichomonas vaginalis [2]; [7]) | MLC (Trichomonas vaginalis [2]; [23]) | MLC (Trichomonas vaginalis [2]; [30]) | MLC (Trichomonas vaginalis [2]; [35]) | MLC (Trichomonas vaginalis [2]; [36])
1500 IU/ml: MLC (Tritrichomonas gallinae; anaerobic) | MLC (Trichomonas vaginalis [2]; [11]) | MLC (Trichomonas vaginalis [2]; [12]) | MLC (Trichomonas vaginalis [2]; [25])
2500 IU/ml and 2000 IU/ml: MLC (first of the two columns per drug) (Giardia lamblia; [41])
28.6 to 35.7 mg/mL: MICs (Giardia lamblia)
21.43 to 28.57 mg/mL: MLC (Tritrichomonas gallinae; [4])
2000 IU/ml: MLC (Tritrichomonas gallinae; aerobic) | MLC (Trichomonas vaginalis [2]; [5]) | MLC (Trichomonas vaginalis [2]; [6]) | MLC (Trichomonas vaginalis [2]; [8]) | MLC (Trichomonas vaginalis [2]; [9]) | MLC (Trichomonas vaginalis [2]; [10]) | MLC (Trichomonas vaginalis [2]; [13]) | MLC (Trichomonas vaginalis [2]; [14]) | MLC (Trichomonas vaginalis [2]; [15]) | MLC (Trichomonas vaginalis [2]; [16]) | MLC (Trichomonas vaginalis [2]; [17]) | MLC (Trichomonas vaginalis [2]; [18]) | MLC (Trichomonas vaginalis [2]; [19]) | MLC (Trichomonas vaginalis [2]; [20]) | MLC (Trichomonas vaginalis [2]; [21]) | MLC (Trichomonas vaginalis [2]; [22]) | MLC (Trichomonas vaginalis [2]; [24]) | MLC (Trichomonas vaginalis [2]; [26]) | MLC (Trichomonas vaginalis [2]; [27]) | MLC (Trichomonas vaginalis [2]; [28]) | MLC (Trichomonas vaginalis [2]; [29]) | MLC (Trichomonas vaginalis [2]; [31]) | MLC (Trichomonas vaginalis [2]; [32]) | MLC (Trichomonas vaginalis [2]; [33]) | MLC (Trichomonas vaginalis [2]; [34]) | MLC (Trichomonas vaginalis [2]; [37]) | MLC (Trichomonas vaginalis [2]; [38]) | MLC (Trichomonas vaginalis [2]; [39]) | MLC (Trichomonas vaginalis [2]; [40])
